According to patent US5041567A, “Antibacterial monic acid derivatives” (Beecham Group plc, priority 1982, dated 1991):
In brackets after ≈: the same amount, converted by molar mass. Read-outs that look alike come from different tables or passages of the source.

Key:
[1] = test system: M. suipneumoniae LABER; assay: MIC against mycoplasma in vitro; assay type: cell-based; settings: Mesomycoplasma hyopneumoniae, 144 h
[2] = test system: E. coli NCTC 10418; assay: MIC against veterinary bacteria in vitro; settings: Escherichia coli, NCTC10418, 18 h
Experimental: (§1) The activity of the compounds of the Examples against various veterinarily important bacteria, was assayed in vitro using two-fold serial dilutions in Diagnostic Sensitivity Test Agar inoculated with 10^4 organisms.

[3] = test system: M. suipneumoniae ATCC 25095; assay: MIC against mycoplasma in vitro; assay type: cell-based; settings: Mesomycoplasma hyopneumoniae, ATCC25095, 144 h
[4] = test system: Corynebacterium xerosis 9755; assay: MIC against human bacteria in vitro; assay type: cell-based
[5] = test system: Ps. aeruginosa NCTC 10662; assay: MIC against human bacteria in vitro; assay type: cell-based; settings: Pseudomonas aeruginosa
[6] = test system: Strep. spp. 64/848-C; assay: MIC against human bacteria in vitro; assay type: cell-based
[7] = test system: Past. multocida PA1; assay: MIC against veterinary bacteria in vitro; settings: Pasteurella multocida, PA1, 18 h
Experimental: as §1

[8] = test system: M. hyosynoviae ATCC 25591; assay: MIC against mycoplasma in vitro; assay type: cell-based; settings: 144 h
[9] = test system: E. coli ESS; assay: MIC against human bacteria in vitro; assay type: cell-based; settings: Escherichia coli; E. coli ESS; 5% chocolated horse blood agar, 18 hours; read-out: MIC
[10] = test system: Neisseria catarrhalis 1502; assay: MIC against human bacteria in vitro; assay type: cell-based
[11] = test system: M. pneumoniae ATCC 15492; assay: MIC against mycoplasma in vitro; assay type: cell-based; settings: Mycoplasmoides pneumoniae, ATCC15492, 144 h; M. pneumoniae ATCC 15492; 6 days, 37° C.; read-out: MIC
[12] = test system: Haemophilus influenzae Q1; assay: MIC against human bacteria in vitro; assay type: cell-based; settings: Haemophilus influenzae Q1; 5% chocolated horse blood agar, 18 hours; read-out: MIC
[13] = test system: Bacillus subtilis 6633; assay: MIC against human bacteria in vitro; assay type: cell-based
[14] = test system: Haemophilus influenzae Wy21; assay: MIC against human bacteria in vitro; assay type: cell-based
[15] = test system: Past. haemolytica PA5; assay: MIC against veterinary bacteria in vitro; settings: Mannheimia haemolytica, PA5, 18 h
Experimental: as §1

[16] = test system: Bord. bronchiseptica B09; assay: MIC against veterinary bacteria in vitro; settings: Bordetella bronchiseptica, B09, 18 h
Experimental: as §1

[17] = test system: S. dublin S7; assay: MIC against veterinary bacteria in vitro; settings: Salmonella enterica, S7, 18 h
Experimental: as §1

[18] = test system: E. coli E1; assay: MIC against veterinary bacteria in vitro; settings: Escherichia coli, E1, 18 h
Experimental: as §1

[19] = test system: E. coli NCTC 10418; assay: MIC against human bacteria in vitro; assay type: cell-based; settings: Escherichia coli
[20] = test system: Strep. agalactiae SPA1; assay: MIC against veterinary bacteria in vitro; settings: Streptococcus agalactiae, SPA1, 18 h
Experimental: as §1

[21] = test system: Strep. pyogenes R80/421-A; assay: MIC against human bacteria in vitro; assay type: cell-based; settings: Streptococcus pyogenes
[22] = test system: Strep. uberis SPU1; assay: MIC against veterinary bacteria in vitro; settings: Streptococcus uberis, SPU1, 18 h
Experimental: as §1

[23] = test system: Staph. aureus Russell; assay: MIC against human bacteria in vitro; assay type: cell-based; settings: Staphylococcus aureus
[24] = Corynebacterium xerosis 9755, 5% chocolated horse blood agar, 18 hours, read-out: MIC
[25] = NCTC10662, Ps. aeruginosa NCTC 10662, 5% chocolated horse blood agar, 18 hours, read-out: MIC
[26] = Strep. spp. 64/848-C, 5% chocolated horse blood agar, 18 hours, read-out: MIC
[27] = Neisseria catarrhalis 1502, 5% chocolated horse blood agar, 18 hours, read-out: MIC
[28] = Bacillus subtilis 6633, 5% chocolated horse blood agar, 18 hours, read-out: MIC
[29] = Haemophilus influenzae Wy21, 5% chocolated horse blood agar, 18 hours, read-out: MIC
[30] = NCTC10418, E. coli NCTC 10418, agar with 5% chocolated horse blood, 18 hours, 37° C., read-out: MIC
[31] = Strep. pyogenes R80/421-A, 5% chocolated horse blood agar, 18 hours, read-out: MIC
[32] = Staph. aureus Russell, 5% chocolated horse blood agar, 18 hours, read-out: MIC
[33] = M. suipneumoniae LABER, 6 days, 37° C., read-out: MIC
[34] = M. suipneumoniae ATCC 25095, 6 days, 37° C., read-out: MIC
[35] = M. hyosynoviae ATCC 25591, 6 days, 37° C., read-out: MIC

| SMILES | MIC [2] | MIC [4, 24] | MIC [5, 25] | MIC [7] | MIC [9] | MIC [10, 27] | MIC [11] | MIC [12] | MIC [13, 28] | MIC [14, 29] | MIC [15] | MIC [16] | MIC [17] | MIC [18] | MIC [19, 30] | MIC [20] | MIC [21, 31] | MIC [22] | MIC [23, 32] | MIC [3, 34] | also measured |
| --- | --- | --- | --- | --- | --- | --- | --- | --- | --- | --- | --- | --- | --- | --- | --- | --- | --- | --- | --- | --- | --- |
| C/C(=C\c1ncc(-c2ccccc2)o1)C[C@@H]1OC[C@H](C[C@@H]2O[C@H]2[C@@H](C)[C@H](C)O)[C@@H](O)[C@H]1O [Example 1, 2-(1-normon-2-yl)-5-phenyloxazole A] | > 80 µg/mL | > 100 µg/mL | > 100 µg/mL | 10 µg/mL (≈ 22.5 µM) | 10 µg/mL (≈ 22.5 µM) | 10 µg/mL (≈ 22.5 µM) | 2.5 µg/mL (≈ 5.64 µM) | 1 µg/mL (≈ 2.25 µM) | 2.5 µg/mL (≈ 5.64 µM) | 1 µg/mL (≈ 2.25 µM) | 80 µg/mL (≈ 180 µM) | 20 µg/mL (≈ 45.1 µM) | > 80 µg/mL | > 80 µg/mL | > 100 µg/mL | 1.25 µg/mL (≈ 2.82 µM) | 1 µg/mL (≈ 2.25 µM) | 0.625 µg/mL (≈ 1.41 µM) | 5 µg/mL (≈ 11.3 µM) |  | MIC [1]: 0.5 µg/mL (≈ 1.13 µM); MIC [3]: 0.5 µg/mL (≈ 1.13 µM); MIC [6, 26]: 2.5 µg/mL (≈ 5.64 µM); MIC [8]: 0.5 µg/mL (≈ 1.13 µM) |
| C/C(=C/c1ncc(-c2ccccc2)o1)C[C@@H]1OC[C@H](C[C@@H]2O[C@H]2[C@@H](C)[C@H](C)O)[C@@H](O)[C@H]1O [Example 2, 2-{3-[5-(2,3-epoxy-5-hydroxy-4-methylhexyl)-3,4-dihydroxytetrahydropyran-2-yl]-2-methylprop-1(Z)-enyl}-5-phenyloxazole] | > 80 µg/mL |  |  | > 80 µg/mL | 25 µg/mL (≈ 56.4 µM) |  |  | 12.5 µg/mL (≈ 28.2 µM) | 25 µg/mL (≈ 56.4 µM) | 12.5 µg/mL (≈ 28.2 µM) | > 80 µg/mL | > 80 µg/mL | > 80 µg/mL | > 80 µg/mL |  | 20 µg/mL (≈ 45.1 µM) |  | 5 µg/mL (≈ 11.3 µM) |  | 10 µg/mL (≈ 22.5 µM) | MIC [1, 33]: 10 µg/mL (≈ 22.5 µM); MIC ([4]; Corynebacterium xerosis, 9755, 18 h): > 50 µg/mL; MIC ([5]; NCTC10662, 18 h): > 50 µg/mL; MIC ([6]; 18 h): > 50 µg/mL; MIC [8, 35]: 5 µg/mL (≈ 11.3 µM); MIC ([10]; Neisseria, 1502, 18 h): > 50 µg/mL; MIC ([19]; NCTC10418, 18 h): > 50 µg/mL; MIC ([21]; R80/421A, 18 h): > 50 µg/mL; MIC ([23]; 18 h): > 50 µg/mL |
| C/C(=C\c1ncc(-c2ccc([N+](=O)[O-])cc2)o1)C[C@@H]1OC[C@H](C[C@@H]2O[C@H]2[C@@H](C)[C@H](C)O)[C@@H](O)[C@H]1O [Example 3, 5-p-nitro-phenyl-2-(1-normon-2-yl)-oxazole A] | > 80 µg/mL | > 100 µg/mL | > 100 µg/mL | 5 µg/mL (≈ 10.2 µM) | 0.5 µg/mL (≈ 1.02 µM) | 0.5 µg/mL (≈ 1.02 µM) | 0.5 µg/mL (≈ 1.02 µM) | 0.1 µg/mL (≈ 0.205 µM) | 0.5 µg/mL (≈ 1.02 µM) | 0.1 µg/mL (≈ 0.205 µM) | 10 µg/mL (≈ 20.5 µM) | 5 µg/mL (≈ 10.2 µM) | > 80 µg/mL | > 80 µg/mL | > 100 µg/mL | 1.25 µg/mL (≈ 2.56 µM) | 0.5 µg/mL (≈ 1.02 µM) | 0.039 µg/mL (≈ 0.0798 µM) | 5 µg/mL (≈ 10.2 µM) | 0.1 µg/mL (≈ 0.205 µM) | MIC [1, 33]: 0.1 µg/mL (≈ 0.205 µM); MIC [6, 26]: 0.5 µg/mL (≈ 1.02 µM); MIC [8, 35]: 0.25 µg/mL (≈ 0.512 µM) |
| COc1ccc(-c2cnc(/C=C(\C)C[C@@H]3OC[C@H](C[C@@H]4O[C@H]4[C@@H](C)[C@H](C)O)[C@@H](O)[C@H]3O)o2)cc1 [Example 4, 5-p-methoxyphenyl-2-(1-normon-2-yl)oxazole A] | > 80 µg/mL | > 100 µg/mL | > 100 µg/mL | 5 µg/mL (≈ 10.6 µM) | 2.5 µg/mL (≈ 5.28 µM) | 10 µg/mL (≈ 21.1 µM) |  | 2.5 µg/mL (≈ 5.28 µM) | 5 µg/mL (≈ 10.6 µM) | 2.5 µg/mL (≈ 5.28 µM) | 40 µg/mL (≈ 84.5 µM) | 20 µg/mL (≈ 42.2 µM) | > 80 µg/mL | > 80 µg/mL | > 100 µg/mL |  | 5 µg/mL (≈ 10.6 µM) | 0.312 µg/mL (≈ 0.659 µM) | 5 µg/mL (≈ 10.6 µM) |  | MIC [1]: 0.5 µg/mL (≈ 1.06 µM); MIC [3]: 0.5 µg/mL (≈ 1.06 µM); MIC [6, 26]: 5 µg/mL (≈ 10.6 µM); MIC [8]: 0.5 µg/mL (≈ 1.06 µM) |
| C/C(=C\c1ncc(-c2ccc(CO)cc2)o1)C[C@@H]1OC[C@H](C[C@@H]2O[C@H]2[C@@H](C)[C@H](C)O)[C@@H](O)[C@H]1O [Example 13, 5-p-Hydroxymethylphenyl-2-(1-normon-2-yl) oxazole A] | > 80 µg/mL | 64 µg/mL (≈ 135 µM) | > 128 µg/mL | 2.5 µg/mL (≈ 5.28 µM) | 2 µg/mL (≈ 4.22 µM) | 4 µg/mL (≈ 8.45 µM) | 0.5 µg/mL (≈ 1.06 µM) | 0.5 µg/mL (≈ 1.06 µM) |  |  | 40 µg/mL (≈ 84.5 µM) | 20 µg/mL (≈ 42.2 µM) | > 80 µg/mL | > 80 µg/mL | > 128 µg/mL | 10 µg/mL (≈ 21.1 µM) | 4 µg/mL (≈ 8.45 µM) | 0.312 µg/mL (≈ 0.659 µM) | 4 µg/mL (≈ 8.45 µM) | 0.25 µg/mL (≈ 0.528 µM) | MIC ([6]; 18 h): 1 µg/mL (≈ 2.11 µM); MIC [8, 35]: 0.25 µg/mL (≈ 0.528 µM); MIC ([13]; Bacillus subtilis, 6633, 18 h): 1 µg/mL (≈ 2.11 µM); MIC ([14]; Haemophilus influenzae, WY21, 18 h): 1 µg/mL (≈ 2.11 µM) |
| COC(=O)c1ccc(-c2cnc(/C=C(\C)C[C@@H]3OC[C@H](C[C@@H]4O[C@H]4[C@@H](C)[C@H](C)O)[C@@H](O)[C@H]3O)o2)cc1 [Example 16, 5-p-Methoxycarbonylphenyl-2-(1-normon-2-yl) oxazole A] | > 80 µg/mL | > 64 µg/mL | > 64 µg/mL | 40 µg/mL (≈ 79.7 µM) | 32 µg/mL (≈ 63.8 µM) | 8 µg/mL (≈ 15.9 µM) | 1 µg/mL (≈ 1.99 µM) | 2 µg/mL (≈ 3.99 µM) | 1 µg/mL (≈ 1.99 µM) | 2 µg/mL (≈ 3.99 µM) | > 80 µg/mL | 40 µg/mL (≈ 79.7 µM) | > 80 µg/mL | > 80 µg/mL | > 64 µg/mL | 1.25 µg/mL (≈ 2.49 µM) | 4 µg/mL (≈ 7.97 µM) | 0.312 µg/mL (≈ 0.622 µM) | 4 µg/mL (≈ 7.97 µM) | 0.25 µg/mL (≈ 0.498 µM) | MIC [1, 33]: 0.25 µg/mL (≈ 0.498 µM); MIC [8, 35]: 0.5 µg/mL (≈ 0.997 µM) |
